# Measured values from patent US20250340902A1, “GENE THERAPY FOR BVES-RELATED DISORDERS” (OHIO STATE INNOVATION FOUNDATION, priority 2022, published 2025).
# Tests used:
# [1] = system: ADCY3/ADCY6 double KO HEK293 cells with stable expression of cAMPr; assay: cAMPr reporter assay; type: cell-based, human; conditions: 500 μM
# BVES-KO mice = assay: Bortezomib treatment of BVES-KO mice; type: in vivo, mouse; conditions: vs vehicle
# Experimental: Histology analysis and immunofluorescence staining. The skeletal muscles were embedded in optimal cutting temperature (OCT) compound, flash frozen using isopentane chilled in liquid nitrogen and kept at −80° C. until used. Cryosections were prepared using a cryostat Leica CM3054. For hematoxylin and eosin (H&E), transversely oriented sections (10 μm) were cut at mid-point, stained and imaged using a Nikon Ti-E inverted fluorescence microscope equipped with a Lumenera Infinity Color CCD camera and a Nikon Super Fluor 20×0.75 NA objective lens (Nikon Inc., Melville, NY) as previously described.
# For immunofluorescence staining, frozen tissue sections (10 μm) were fixed with 4% paraformaldehyde for 10 minutes at room temperature. After washing with PBS, the slides were blocked with 5% BSA/PBS for one hour. The slides were incubated with the indicated primary antibodies (Table 3) at 4° C. overnight. After extensive washing with PBS, the slides were incubated with the secondary antibodies (1:400) (Table 3) for one hour at room temperature. The slides were sealed with […] Antifade Mounting Medium with DAPI (Vector Laboratory, Burlingame, CA). The images were taken under a LSM780 microscope (Zeiss, Germany) and assembled to figures using Adobe Photoshop 21.0.2 (Adobe, San Jose, CA). Fiber size and CNF quantification were carried out using Myosight with manual calibration on the entire cross-sections of GA muscles.
# Bortezomib Treatment. Bortezomib was purchased from Selleck Chemicals (#S0130, Houston, TX). A stock solution (5 mg/ml) dissolved in the vehicle 2% DMSO, 30% PEG300 and ddH2O were aliquoted and stored at […]. An equal volume of Bortezomib (0.8 mg/kg diluted with the vehicle) or vehicle was I.P. injected once bi-weekly into BVES-KO mice (N=6 per treatment) at 12 weeks age, respectively. After two months of treatment, force measurement and exercise evaluation were performed. Mice were sacrificed after 3-month treatment. QU and GA muscles were processed for histopathology, immunofluorescence and Western blot analyses.
# Force measurement. The muscle contractility was measured using an in vivo muscle test system (Aurora Scientific Inc) as previously described. Briefly, mice were anesthetized with 2% (w/v) isoflurane and anesthesia was maintained by 2% isoflurane (w/v) during muscle contractility measurement. Maximum plantarflexion tetanic torque was measured during a train of supramaximal electric stimulations of the tibial nerve (pulse frequency 150 Hz, pulse duration 0.2 ms) using the DMA v5.501 (Aurora Scientific Inc).
# Exercise and exhaustion assay. Time and distance to exhaustion was performed as previously described. Briefly, prior to training, the randomized mice were firstly acclimated to the treadmill (LE8710MTS, Harvard Apparatus) for two consecutive days at slow speed (10 cm/s) for 5 min. On the third day, mice were placed on an uphill) (15° treadmill with an initial speed of 10 cm/s, increased every 4 min by 5 cm/s. Mice were considered to be exhausted when the animal's hindlimbs remained on the electric grid for more than 10 s. Time and distance were automatically collected via the software SeDaCOM (Harvard Apparatus).
# [2] = system: WT and BVES-KO skeletal muscles; assay: Autophagic flux assay (colchicine), LC3B Western blot in GA muscles; type: in vivo, mouse; conditions: 0.4 mg/kg I.P. daily 7 days
# Experimental: Autophagic flux assay. A stock solution of colchicine (4 mg/ml in sterile ddH2O, C9754, Sigma-Aldrich) was prepared and stored at −20° C. until the day of treatment. Immediately prior to administration, the colchicine stock solution was diluted to 0.1 mg/mL in sterile ddH2O water. An equal volume of colchicine (0.4 mg/kg) or vehicle was administered to mice (6 weeks old) daily via I.P. injection for 7 days. Muscle tissues were harvested from treated mice on the day after the final treatment.
# Western blot. The cells and tissues were homogenized/lysed with cold RIPA buffer supplemented with protease inhibitors, and the extracted proteins were quantified by DC™ Protein Assay Reagent (Bio-Rad, Hercules, CA). The membrane extraction was performed using the Membrane Protein Extraction Kit (ab65400, Abcam, Waltham, MA) according to the manufacturer's instruction. The extracted protein samples were separated by stain-free SDS-PAGE gels (Bio-Rad, 4-15%) and transferred onto Nitrocellulose Membranes (0.45 μm). The membrane was incubated with the primary antibodies (Table 3) at 4° C. overnight. Secondary HRP-conjugated goat anti-mouse (1:4000) and goat anti-rabbit (1:4000) antibodies were obtained from Cell Signaling Technology (Danvers, MA). […] Western blots were quantified using Image Lab 6.0.1 software (Bio-Rad Laboratories, Hercules, CA) according to the manufacturer's instruction.
smiles,measurement,setting,value
"CC(C)Cn1c(=O)n(C)c(=O)c2[nH]cnc21 [IBMX, 3-isobutyl-1-methylxanthine]",cAMP (cAMPr fluorescence) change,[1]; ADCY9-transfected cells,gradual increase
same,cAMP (cAMPr fluorescence) change,[1]; cells co-transfected with BVES and ADCY9,substantially reduced cAMP elevation
CC(C)C[C@H](NC(=O)[C@H](Cc1ccccc1)NC(=O)c1cnccn1)B(O)O [bortezomib],body weight,"BVES-KO mice; 0.8 mg/kg I.P. once bi-weekly, 2 months",significantly increased
same,"fiber size (CSA, GA)","BVES-KO mice; 0.8 mg/kg I.P., 2 months",significantly increased
same,muscle contractility (tetanic torque),"BVES-KO mice; 0.8 mg/kg I.P., 2 months",enhanced
same,"physical performance on treadmill running (time to exhaustion, total running distance)","BVES-KO mice; 0.8 mg/kg I.P., 2 months",improved
same,mass of quadriceps and gastrocnemius muscles (normalized to body weight),BVES-KO mice; 0.8 mg/kg I.P.,significantly increased
same,"muscle pathology (H&E staining, GA)",BVES-KO mice; 0.8 mg/kg I.P.,remarkably improved
same,percentage of CNFs (GA),BVES-KO mice; 0.8 mg/kg I.P.,reduced
COc1cc2c(c(OC)c1OC)-c1ccc(OC)c(=O)cc1[C@@H](NC(C)=O)CC2 [colchicine],LC3B (Western blot),[2],significant increase
